Laboratory results as given in PubChem BioAssay (NCI).
Where “and” joins values, the source holds several entries; their conditions need not be identical. Identical values can stand only once.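 These data come from cells grown in 96-well plates and exposed to compound for 48 hours at five concentrations. GI50 = concentration required for 50% inhibition of growth. TGI is the concentration that stops growth completely.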

Key:
Test in all cases: growth of human tumour cells (NCI), 48 h
KM12 colon = system: KM12 colon
HCT-15 colon = system: HCT-15 colon
U251 CNS = system: U251 CNS
UACC-257 melanoma = system: UACC-257 melanoma
786-0 renal = system: 786-0 renal
M14 melanoma = system: M14 melanoma
TK-10 renal = system: TK-10 renal
UACC-62 melanoma = system: UACC-62 melanoma
HL-60(TB) leukemia = system: HL-60(TB) leukemia
HCT-116 colon = system: HCT-116 colon

| SMILES | TGI (KM12 colon) | TGI (HCT-15 colon) | TGI (U251 CNS) | TGI (UACC-257 melanoma) | TGI (786-0 renal) | TGI (M14 melanoma) | TGI (TK-10 renal) | TGI (UACC-62 melanoma) | TGI (HL-60(TB) leukemia) | TGI (HCT-116 colon) | GI50 (KM12 colon) | GI50 (HCT-15 colon) | GI50 (U251 CNS) | GI50 (UACC-257 melanoma) | GI50 (786-0 renal) | GI50 (M14 melanoma) | GI50 (TK-10 renal) | GI50 (UACC-62 melanoma) | GI50 (HL-60(TB) leukemia) | GI50 (HCT-116 colon) |
| --- | --- | --- | --- | --- | --- | --- | --- | --- | --- | --- | --- | --- | --- | --- | --- | --- | --- | --- | --- | --- |
| CN(C)P(=O)(/C(N)=N/Nc1ccc([N+](=O)[O-])cc1)N(C)C | > 100 µM | > 100 µM | > 100 µM | > 100 µM | > 100 µM | > 100 µM | > 100 µM | > 100 µM | > 100 µM | > 100 µM |  |  |  |  |  |  |  |  |  |  |
| COc1ccc(OC)c(/C=C/C(=O)N/N=C/c2ccc(Cl)cc2)c1 | > 29.1 µM | > 100 µM | 1.49 µM | > 100 µM | > 100 µM | > 25.9 µM | > 100 µM | > 100 µM | 0.483 µM |  | 0.0466 µM | 0.0736 µM | 0.184 µM | 36.5 µM | 0.143 µM | 0.0633 µM | 0.383 µM | 0.058 µM | 0.0785 µM | 0.0571 µM |
| CC(C)N(C(=O)C12CC3CC(CC(C3)C1)C2)C(C)C | > 50 µM | > 50 µM | > 50 µM | > 50 µM | > 50 µM | > 50 µM | > 50 µM | > 50 µM | > 50 µM | > 50 µM |  |  |  |  |  |  |  |  |  |  |
| CN(C)CCCn1c2c(c3ccccc3c1=O)C(=O)c1ccccc1-2 | 17.7 µM | 12 µM | 6.37 µM |  | 14.2 µM | 17.1 µM | 11.3 µM | 1.96 µM | 3.85 µM | 4.34 µM | 3.6 µM | 1.85 µM | 1.47 µM |  | 2.47 µM | 3.66 µM | 1.67 µM | 0.516 µM | 1.74 µM | 0.578 µM |
| COc1cc(C2=NN(C(C)=O)C(c3ccc(OC(C)=O)cc3OC(C)=O)O2)c(OC(C)=O)c2ccccc12 (centres undefined) | 27.3 µM | 25.6 µM | 14.8 µM | 6.86 µM | 12.7 µM | 7.15 µM | 35.1 µM | 9.67 µM | 2.94 µM | 12.2 µM | 1.02 µM | 0.581 µM | 0.472 µM | 0.981 µM | 0.902 µM | 0.582 µM | 1.31 µM | 0.897 µM | 0.671 µM | 0.346 µM |
| CN(C)CCNC(=O)c1cccc(C(=O)Nc2ccccc2)c1[N+](=O)[O-] | > 100 µM | > 100 µM | > 100 µM | > 100 µM | > 100 µM | > 100 µM | > 100 µM | > 100 µM | > 100 µM | > 100 µM |  |  |  |  |  |  |  |  |  |  |
| O=C(c1cccc(O)c1O)c1cn(Cc2ccc(F)cc2)c2cccc(O)c12 | 19.4 µM | 14.8 µM | 15.2 µM | 14.3 µM | 20.8 µM | 13.4 µM | 26.8 µM | 14.6 µM | 6.93 µM | 17.1 µM | 5.46 µM | 1.16 µM | 2.95 µM | 4.44 µM | 7.46 µM | 3.43 µM | 7.01 µM | 4.27 µM | 1.36 µM | 3.28 µM |
| NC(N)=NCCCn1c2c(c3ccccc3c1=O)C(=O)c1ccccc1-2 | 59.1 µM |  | 0.637 µM |  | 3.29 µM | 34.5 µM | 98.3 µM | 25.7 µM | 81.3 µM | 45.6 µM | 21.9 µM |  | 0.223 µM |  | 0.681 µM | 18.7 µM | 29.5 µM | 10.9 µM | 23.9 µM | 22.3 µM |
| CCC1(O)C(=O)OCc2c1cc1n(c2=O)Cc2cc3ccc(C=O)cc3nc2-1 (centres undefined) | 29.7 µM and > 100 µM | 40.2 µM and > 62.4 µM | 50 µM and 8.82 µM | 23.7 µM and 43.7 µM | 9.18 µM and 4.95 µM | 50 µM and 19.2 µM | 50 µM and > 100 µM | 3.44 µM and 3.71 µM | 5.99 µM | 7.29 µM and 16.4 µM | 4.83 µM |  | 1.02 µM | 7.73 µM | 0.45 µM | 1.44 µM | 20.8 µM | 0.77 µM |  | 0.519 µM |
| Cc1ccccc1N(CCC#N)C1=NN(C(=O)CC(=O)Nc2ccccc2)C(c2ccccc2)C1 (centres undefined) | > 100 µM | > 100 µM | > 100 µM | > 100 µM | > 100 µM | > 100 µM |  | > 100 µM | > 100 µM | > 100 µM |  |  |  |  |  |  |  |  |  |  |
| CCC#CC[C@H]1C/C=C2/C(=O)C=C[C@@H]2C/C=C\CCCC(=O)O1 | 2.16 µM | 2.14 µM | 2.24 µM |  | 2.4 µM | 8.61 µM | 4.59 µM | 1.8 µM | 4.23 µM | 2.61 µM | 0.848 µM | 0.67 µM | 0.706 µM |  | 1.06 µM | 1.48 µM | 1.74 µM | 0.559 µM | 1.07 µM | 0.43 µM |
| CCN(CC)CCN1CC(O)=C(c2nc(-c3ccc(Cl)cc3)cs2)C1=N | 8.09 µM | 3.42 µM | 3.17 µM | 3.51 µM | 3.19 µM |  | 5.65 µM | 3.53 µM | 3.5 µM | 4.16 µM | 2.72 µM | 1.58 µM | 1.68 µM | 1.82 µM | 1.62 µM |  | 2.86 µM | 1.87 µM | 1.5 µM | 1.78 µM |
| COc1ccc2c(c1)C(=O)c1c-2n(CCCn2ccnc2)c(=O)c2ccccc12 | 3.78 µM | 7.72 µM | 2.6 µM | 10.9 µM | 1.66 µM |  | 15.4 µM | 1.86 µM | 18.4 µM | 0.74 µM | 0.729 µM | 1.24 µM | 0.126 µM | 1.14 µM | 0.239 µM |  | 2.09 µM | 0.403 µM | 1.49 µM | 0.235 µM |
| COc1cc(NC(=O)c2cc(O)c(CC=C(C)C)c(O)c2)cc2c1O[C@]1(C)CC[C@@H](O)C(C)(C)[C@H]1C2 | 18.4 µM | 21.3 µM | 14.8 µM | 15.7 µM | 7.24 µM | 13.5 µM | 55.6 µM | 8.27 µM | 18.7 µM | 15.4 µM | 4.12 µM | 4.09 µM | 0.846 µM | 3.37 µM | 0.567 µM | 2.94 µM | 9.59 µM | 2.41 µM | 1.88 µM | 3.37 µM |
